One experiment has as its target T1, hMCH-1R (Homo sapiens, UniProt Q99705).
T1 construct: expressed in transfected cells
As to the kind of experiment: MCH-1 receptor binding test (125I-MCH binding to membranes of hMCH-1R transfected CHO/Galpha16 cells). As to conditions: 100 pM 125I-MCH. The protocol: After the incubation the reaction is filtered using a cell harvester through 0.5% PEI treated fibreglass filters (GF/B, Unifilter Packard). The membrane-bound radioactivity retained on the filter is then determined after the addition of scintillator substance (Packard Microscint 20) in a measuring device (TopCount of Packard). […] The analysis of the concentration binding curve is carried out on the assumption of one receptor binding site.

The conditions of experiment [1]: rats, intraventricular administration, compared with control animals; cited from earlier work.
The conditions of experiment [2]: long term trials, treated animals; cited from earlier work.
For experiment [3] the following is noted: rats; cited from earlier work.

T1 sequence (Q99705 whole entry): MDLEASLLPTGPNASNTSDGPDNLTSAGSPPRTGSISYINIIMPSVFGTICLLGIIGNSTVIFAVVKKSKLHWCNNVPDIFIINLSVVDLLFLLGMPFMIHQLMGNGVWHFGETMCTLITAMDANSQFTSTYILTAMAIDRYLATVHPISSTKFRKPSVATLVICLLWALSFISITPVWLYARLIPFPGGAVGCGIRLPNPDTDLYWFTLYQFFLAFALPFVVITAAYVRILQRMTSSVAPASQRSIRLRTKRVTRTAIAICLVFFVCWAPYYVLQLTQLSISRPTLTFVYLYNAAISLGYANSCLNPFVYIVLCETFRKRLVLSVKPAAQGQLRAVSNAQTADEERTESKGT

`Cc1cc(C#Cc2ccc(-c3ccc(Cl)cc3)cn2)ccc1OCCN1CC[C@H](O)[C@](C)(O)C1` [Example 1.5, (3R,4S)-1-(2-{4-[5-(4-chloro-phenyl)-pyridin-2-ylethynyl]-2-methyl-phenoxy}-ethyl)-3-methyl-piperidine-3,4-diol] had an IC50 at hMCH-1R of 10.9 nM.
Still for that read-out and setting: for `OCCCN(CCOc1ccc(C#Cc2ccc(-c3ccc(Cl)cc3)cn2)cc1)CC1(O)CC1` [Example 2.20, 1-{[(2-{4-[5-(4-chloro-phenyl)-pyridin-2-ylethynyl]-phenoxy}-ethyl)-(3-hydroxy-propyl)-amino]-methyl}-cyclopropanol] the value was 13.8 nM.
Consider `CSCC[C@@H]1NC(=O)[C@@H](NC(=O)[C@H](CCCNC(=N)N)NC(=O)[C@H](CC(C)C)NC(=O)[C@H](CCSC)NC(=O)[C@H](CC(=O)O)NC(=O)[C@H](Cc2ccccc2)NC(=O)[C@@H](N)CC(=O)O)CSSC[C@@H](C(=O)N[C@@H](Cc2c[nH]c3ccccc23)C(=O)N[C@@H](CCC(N)=O)C(=O)N[C@H](C(=O)O)C(C)C)NC(=O)[C@@H]2CCCN2C(=O)[C@H](CCCNC(=N)N)NC(=O)[C@H](Cc2ccc(O)cc2)NC(=O)[C@H](C(C)C)NC(=O)[C@H](CCCNC(=N)N)NC(=O)CNC(=O)[C@H](CC(C)C)NC1=O` [MCH, Melanin-concentrating hormone], for which the food intake entry in experiment [1] is on record as “food intake was increased”.
As to `COCC1=C(C(=O)OC)[C@H](c2ccc(F)c(F)c2)N(C(=O)NCCCN2CCC(c3cccc(NC(C)=O)c3)CC2)C(=O)N1` [SNAP-7941], in experiment [2], the body weight entry is “lose significant amounts of weight”. Further, the “effects in behavioural experiments” value in experiment [3] was “anxiolytic and antidepressant effects”.

The term IC50 denotes the concentration that gives 50% inhibition. A lower IC50 goes with inhibition by little substance.
